Reference: patent US12662473B2, “Inhibitors for programmed cell necrosis and preparation method therefor and use thereof” (SHANGHAI INSTITUTE OF ORGANIC CHEMISTRY, CHINESE ACADEMY OF …, priority 2019, dated 2026)

Assays:
[1] = target: T1, RIPK1(1-330) protein (Homo sapiens, UniProt Q13546); assay: ADP-Glo kinase activity assay at different ATP concentrations; assay type: biochemical; set-up: RIPK1(1-330) protein with a final concentration of 2 μL and ATP; made in house; settings: FIG. 4
T1 sequence (Q13546 1-330): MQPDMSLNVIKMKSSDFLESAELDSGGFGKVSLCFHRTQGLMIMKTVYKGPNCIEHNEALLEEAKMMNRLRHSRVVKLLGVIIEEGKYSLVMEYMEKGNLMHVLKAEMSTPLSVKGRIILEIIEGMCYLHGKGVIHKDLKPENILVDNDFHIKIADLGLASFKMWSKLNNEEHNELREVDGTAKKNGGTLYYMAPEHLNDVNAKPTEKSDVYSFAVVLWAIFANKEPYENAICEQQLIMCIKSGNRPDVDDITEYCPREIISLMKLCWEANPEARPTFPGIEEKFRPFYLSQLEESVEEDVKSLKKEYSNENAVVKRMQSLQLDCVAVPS
Protocol: The adopted biological test protocol was: The effect of compound QY-1-98 on the kinase activity of RIPK1(1-330) protein was tested. The purified RIPK1(1-330) protein in vitro retained the complete kinase activity domain and maintained good kinase activity. Through the IC50 of the compounds of the present invention inhibiting RIPK1 kinase activity in the environment with different concentrations of ATP, the binding mode of the compounds to RIPK1 is obtained. Nec-1s, a known ATP-noncompetitive inhibitor of RIPK1, was used as a control.
RIPK1(1-330) protein with a final concentration of […] and ATP (1× kinase buffer) with a corresponding concentration were added to the 384-well plate, with a […]. At least 3 duplicate wells were set in each group. The reaction was carried out at 37° C. for 2H. 5 μL of ADP-Glo reagent was added, which is used to stop the kinase reaction and remove residual ATP from the reaction system. The reaction solution was placed at room temperature for 40 min 10 μL of kinase detection reagent was added, which is used to convert ADP to ATP and luciferase and luciferin were introduced to detect ATP in the system. The reaction was carried out at room temperature for 1H. Luminescence was detected using the 7500 Fast Real-Time PCR System. The IC50 of the compounds inhibiting the kinase reaction was calculated using Prism Graphpad statistical software.

[2] = tested on: RIPK1 phosphorylation and MLKL oligomerization in FADD deficient Jurkat cells; assay: Western blot of key proteins in TNFα-induced FADD deficient Jurkat cell programmed necrosis pathway; assay type: cell-based, human; settings: TNFα-stimulated FADD deficient Jurkat cells, FIG. 2
Description: In order to verify whether the compounds of the present invention can inhibit programmed cell death by inhibiting the activity of RIPK1, and to detect the activation of downstream proteins of programmed necrosis pathway, TNFα was used to stimulate FADD deficient Jurkat to produce programmed necrosis, and the compounds of the present invention were used to treat the cells at the same time. Cells were harvested after a period of time to detect phosphorylation of RIPK1 and oligomerization of MLKL using western blot.
FADD deficient Jurkat cells (human peripheral blood leukemia T cell line) were cultured in vitro. […] The BCA protein quantification kit was used to detect the protein content of each group, and PIPA lysis buffer was used to adjust the protein amount to make the final volume of 100 μL. […]
25 μL of 5* protein loading buffer was added to 100 μL of cell lysate, and the mixture was heated at 95° C. for 10 min After the samples were cooled, electrophoresis was carried out using SDS-PAGE (9%) gel at 60V, and then switched to 120V after 30 min until the leading band was electrophoresed to the bottom of the gel. […] The resulting sample was incubated with ECL luminescent solution and detected the luminescent signal.

[3] = target: T1, RIPK1(1-330) protein; assay: Protein thermal shift assay; assay type: binding; set-up: RIPK1(1-330) protein (final concentration 2 μM) was expressed and purified in insect cells; made in house; host or cells: insect cells; settings: FIG. 3
Protocol: The interaction between RIPK1 protein and compound was analyzed by studying the thermal stability of the protein. Small molecule ligands can stabilize proteins by binding to proteins, increasing the Tm value of proteins. The interaction between the compound and the protein can be indirectly judged by testing the effect of the compound on the thermal stability of the protein. RIPK1 protein contains kinase domain (1-312), intermediate domain (312-582) and death domain (582-669), and RIPK1 (1-330) protein purified in vitro contains all kinase domains.
The adopted biological test protocol was to test the effect of compound QY-1-98 on the thermal stability of RIPK1 (1-330) protein using protein thermal shift assay, using the known RIPK1 inhibitor Nec-1s as a control.
RIPK1(1-330) protein (final concentration 2 μM) was expressed and purified in insect cells, mixed with the corresponding concentration of compound and SYRO Orange Protein gel stain dye (final concentration 5×). 10 μL of final volume was added to 384-well plate, and at least 3 duplicate wells were set in each group. After the samples were placed for 2 hours at room temperature, the 7500 Fast Real-Time PCR System was applied to test the thermal stability of the protein by […]. The temperature was set at 25° C.-95° C., 0.015° C./s. The datas were analyzed using protein thermal shift software.

Cc1noc([C@@H]2CCCN2C(=O)C(C)(C)Oc2ccc(Cl)cc2)n1 [QY-1-98]
activity of RIPK1 (1-330) protein kinase in vitro ([1]; ADP-Glo): can inhibit the activity of RIPK1 (1-330) protein kinase in vitro | change of IC50 with the increase of ATP concentration ([1]; different ATP concentrations): does not change significantly | oligomerization of MLKL [2]: can inhibit | phosphorylation of RIPK1 [2]: can inhibit the phosphorylation of RIPK1 | thermal stability of RIPK1 (1-330) protein [3]: can significantly improve the thermal stability
